The target in experiment [1] is T1, human VR1 (Homo sapiens, UniProt Q8NER1).
T1 construct: expressed in transfected cells
As to the kind of experiment: Capsaicin-based assay of human VR1 (FLIPR calcium influx). The format is cell-based. As to conditions: activation by capsaicin (400 nM), HEK293-EcR cells expressing human VR1, n=3. On the procedure: (§1) Human VR1 Cloning: Human spinal cord RNA (commercially available from Clontech, Palo Alto, Calif.) was used. Reverse transcription was conducted on 1.0 μg total RNA using Thermoscript Reverse Transcriptase (commercially available from Invitrogen) and oligo dT primers as detailed in its product description. Reverse transcription reactions were incubated at 55° C. for 1 h, heat-inactivated at 85° C. for 5 min, and RNase H-treated at 37° C. for 20 min.
(§2) Human VR1 cDNA sequence was obtained by comparison of the human genomic sequence, prior to annotation, to the published rat sequence. Intron sequences were removed and flanking exonic sequences were joined to generate the hypothetical human cDNA. Primers flanking the coding region of human VR1 were designed as follows: forward primer, […]; and reverse primer, […]. […]
(§3) Generation of Inducible Cell Lines: Unless noted otherwise, cell culture reagents were purchased from Life Technologies of Rockville, Md. […] On the day of assay, cells were loaded with Fluo-4 (a calcium-sensitive dye that is commercially available from Molecular Probes) and CAP-mediated calcium influx was measured using a FLIPR as described below. […]

Experiment [2] concerns the target T1, human VR1. As to the kind of experiment: pH-based assay of human VR1 (FLIPR calcium influx). The class given is cell-based. Particulars: agonist buffer pH 5.5, HEK293-EcR cells expressing human VR1, n=4. How it is done:
as §1, §2, §3

T1 sequence (Q8NER1 whole entry): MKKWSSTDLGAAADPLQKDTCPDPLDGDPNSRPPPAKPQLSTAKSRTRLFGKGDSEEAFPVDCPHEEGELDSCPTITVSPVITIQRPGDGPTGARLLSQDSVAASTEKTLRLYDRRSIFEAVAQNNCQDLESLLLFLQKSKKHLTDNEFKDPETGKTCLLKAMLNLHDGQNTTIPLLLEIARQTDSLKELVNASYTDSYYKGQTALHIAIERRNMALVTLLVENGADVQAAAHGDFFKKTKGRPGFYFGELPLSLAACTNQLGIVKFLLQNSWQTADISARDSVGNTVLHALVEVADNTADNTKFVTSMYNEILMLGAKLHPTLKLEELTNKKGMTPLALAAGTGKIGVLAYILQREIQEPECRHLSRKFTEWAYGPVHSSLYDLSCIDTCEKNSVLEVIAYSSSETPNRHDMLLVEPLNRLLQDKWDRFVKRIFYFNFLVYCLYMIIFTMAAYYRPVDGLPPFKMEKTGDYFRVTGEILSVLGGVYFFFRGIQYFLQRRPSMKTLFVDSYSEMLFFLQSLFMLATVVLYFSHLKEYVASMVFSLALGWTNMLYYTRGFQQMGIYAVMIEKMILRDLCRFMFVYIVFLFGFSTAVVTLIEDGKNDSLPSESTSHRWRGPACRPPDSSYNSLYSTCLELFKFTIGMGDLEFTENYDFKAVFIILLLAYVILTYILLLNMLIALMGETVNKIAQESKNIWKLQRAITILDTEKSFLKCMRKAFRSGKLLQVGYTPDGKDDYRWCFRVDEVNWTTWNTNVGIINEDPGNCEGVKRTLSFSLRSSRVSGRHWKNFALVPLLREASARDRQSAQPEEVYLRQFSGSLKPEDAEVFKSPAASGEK

The IC50 is the concentration that gives 50% inhibition. Regarding `Cc1cccnc1-c1ccc(C(=O)Nc2ccc(C(C)(C)C)cc2)nc1` [E35(a)], the values for the IC50 on human VR1 [1] and on human VR1 [2] were 0.0655 ± 0.0173 µM and 0.826 ± 0.248 µM, respectively.
